Reference: patent US12304912B2, “Fused bicyclic RAF inhibitors and methods for use thereof” (Jazz Pharmaceuticals Ireland Limited, priority 2020, dated 2025)
Where a name gives a salt, the structure may show the parent alone. Read-outs that look alike come from different tables or passages of the source.

What was measured:
[1] = system: constitutive ERK phosphorylation in HCT-116 cells; assay: HCT-116 AlphaLISA SureFire pERK1/2 cellular assay; assay type: cell-based, human; settings: HCT116 cells, 2 hr; for IC50: Homo sapiens, HCT-116, read-out: pERK HCT116 (2 hr) Abs pIC50 (converted)
Method: HCT-116 AlphaLISA SureFire pERK1/2 Cellular Assay […] […] Assay read outs took place 2 or 24 hours after dosing with compounds. On the first day, HCT-116 cells were harvested, resuspended in growth medium (McCoys5A with Glutamax (Life Technologies 36600021) and 10% heat-inactivated fetal bovine serum (Sigma F9665)), and counted. Cells were plated in 100 μl per well in each well of a 96-well culture dish (Sigma CLS3598) to a final density of 30,000 (2 hr read) or 15,000 (24 hr read) cells per well and incubated over night at 37° C. and 5% CO2. On day 2, the growth medium was exchanged for dosing medium (McCoys5A with Glutamax (Life Technologies 36600021) and 1% heat-inactivated fetal bovine serum (Sigma F9665)) and the cells were dosed with compounds to produce a 10-point dose response, where the top concentration was 1 μM and subsequent concentrations were at 1/3 log dilution intervals. A matched DMSO control was included. The cells were subsequently incubated for either 2 or 24 hours at 37° C. and 5% CO2. After incubation, media was removed and the cells were incubated with lysis buffer containing phosphatase inhibitors for 15 minutes at room temperature. Cell lysates were transferred to a 12 area 96 well white Optiplate™ (Perkin Elmer 6005569) and incubated with anti-mouse IgG acceptor beads, a biotinylated anti-ERK1/2 rabbit antibody recognizing both phosphorylated and non-phosphorylated ERK1/2, a mouse antibody targeted to the Thr202/Tyr204 epitope and recognizing phosphorylated ERK proteins only, and streptavidin-coated donor beads. The biotinylated antibody binds to the streptavidin-coated donor beads and the phopsho-ERK1/2 antibody binds to the acceptor beads. […] Both antibodies bound to phosphorylated ERK proteins, bringing the donor and acceptor beads into close proximity. All data were analyzed using the Dotmatics or GraphPad Prism software packages. Inhibition of ERK phosphorylation was assessed by determination of the absolute IC50 value, which is defined as the concentration of compound required to decrease the level of phosphorylated ERK proteins by 50% when compared to DMSO control.

[2] = Plasma protein binding assay, human plasma (hPPB); assay type: in vitro ADME; settings: 5 μM
Procedure, shortened: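 Equilibrium dialysis of 5 μM compound in previously frozen human or mouse plasma against phosphate buffer, 4 h at 37 °C. Both chambers quantified by LC-MS/MS; % free = (1−((PC−PF)/PC))×100.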

[3] = system: BRAF monomers in A375 cells; assay: A375 AlphaLISA SureFire pERK1/2 cellular assay (monomer); assay type: cell-based; settings: Homo sapiens, A-375; A375 cells, 1 hr; read-out: pERK A375 (1 hr) pIC50 (converted)
Procedure, shortened: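 BRAF^V600E A375 melanoma cells seeded at 30,000/well in DMEM with 10% FBS, dosed without medium exchange in a 10-point series from 10 μM at 1/2-log steps, 1 h at 37 °C. Phospho-ERK1/2 (Thr202/Tyr204) measured in lysates by AlphaLISA SureFire; absolute IC50 relative to DMSO control.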

[4] = equilibrium dialysis 4 hours at 37° C.
[5] = equilibrium dialysis 4 hours 37° C.

Row | Structure (SMILES) | IC50 ([1]; Abs) [nM] | hPPB (% free) [2, 4] [% free] | IC50 [3] [nM] | IC50 ([1]; absolute IC50) [nM] | hPPB (% free) [2, 5] [% free] | pERK HCT116 (2 hr) Abs pIC50 ([1]; Abs)
1 | O=C(CN1CC[C@@H](O)C1)Nc1cc(Oc2ccc3c(c2)CC(c2nc(-c4ccccc4)c[nH]2)CO3)ccn1 (stereo partly drawn) [Compound 145] | 166 | 0.4 | 537 |  |  | 
2 | O=C1CCc2c(Oc3ccc4c(c3)CC(c3nc5cc(C(F)(F)F)ccc5[nH]3)CO4)ccnc2N1 (stereo not drawn) [Compound 22, 5-[3-[6-(trifluoromethyl)-1H-benzimidazol-2-yl]chroman-6-yl]oxy-3,4-dihydro-1H-1,8-naphthyridin-2-one] |  |  | 20 | 141 | <0.1 | 
3 | Cc1cc(-c2c[nH]c(C3COc4ccc(Oc5ccnc6c5CCC(=O)N6)cc4C3)n2)n(C(C)C)n1 (stereo not drawn) [Compound 112, 5-[3-[4-(2-isopropyl-5-methyl-pyrazol-3-yl)-1H-imidazol-2-yl]chroman-6-yl]oxy-3,4-dihydro-1H-1,8-naphthyridin-2-one] | > 1000 | 1.4 | 1780 |  |  | 
4 | O=C1CCc2c(Oc3ccc4c(c3)CC(c3nc(-c5ccc(C(F)(F)F)nc5)c[nH]3)CO4)ccnc2N1 (stereo not drawn) [Compound 127, 5-[3-[4-[6-(trifluoromethyl)-3-pyridyl]-1H-imidazol-2-yl]chroman-6-yl]oxy-3,4-dihydro-1H-1,8-naphthyridin-2-one] | 417 | 0.6 | 851 |  |  | 
5 | COc1csc(-c2c[nH]c(C3COc4ccc(Oc5ccnc6c5CCC(=O)N6)cc4C3)n2)c1 (stereo not drawn) [Compound 122, 5-[3-[5-(4-methoxy-2-thienyl)-1H-imidazol-2-yl]chroman-6-yl]oxy-3,4-dihydro-1H-1,8-naphthyridin-2-one] | 132 | 0.23 | 288 |  |  | 
6 | O=C(CN1CC(O)C1)Nc1cc(Oc2ccc3c(c2)CC(c2nc(-c4ccccc4)c[nH]2)CO3)ccn1 (stereo not drawn) [Compound 153] | 200 | 0.39 | 501 |  |  | 
7 | CCc1cc(-c2c[nH]c(C3COc4ccc(Oc5ccnc6c5CCC(=O)N6)cc4C3)n2)ccn1 (stereo not drawn) [Compound 118, 5-[3-[4-(2-ethyl-4-pyridyl)-1H-imidazol-2-yl]chroman-6-yl]oxy-3,4-dihydro-1H-1,8-naphthyridin-2-one] | 269 | 1.3 | 631 |  |  | 
8 | O=C1CCc2c(Oc3ccc4c(c3)CC(c3nc(-c5ccnc(C(F)(F)F)c5)c[nH]3)CO4)ccnc2N1 (stereo not drawn) [Compound 8, 5-[3-[4-[2-(trifluoromethyl)-4-pyridyl]-1H-imidazol-2-yl]chroman-6-yl]oxy-3,4-dihydro-1H-1,8-naphthyridin-2-one] |  | 1.0 | 316 | 174 | 1.0 | 6.76
9 | CCc1cc(-c2c[nH]c(C3COc4ccc(Oc5ccnc6c5CCC(=O)N6)cc4C3)n2)n(C)n1 (stereo not drawn) [Compound 111] | 219 | 1.91 | 537 |  |  | 
10 | O=C1CCc2c(Oc3ccc4c(c3)CC(c3nc(-c5ccnc(C(F)F)c5)c[nH]3)CO4)ccnc2N1 (stereo not drawn) [Compound 101, 5-[3-[4-[2-(difluoromethyl)-4-pyridyl]-1H-imidazol-2-yl]chroman-6-yl]oxy-3,4-dihydro-1H-1,8-naphthyridin-2-one] | 132 | 1.6 | 204 |  |  | 
11 | CN1CCC(C(=O)Nc2cc(Oc3ccc4c(c3)CC(c3nc(-c5ccccc5)c[nH]3)CO4)ccn2)CC1 (stereo not drawn) [Compound 147, 1-methyl-N-[4-[3-(4-phenyl-1H-imidazol-2-yl)chroman-6-yl]oxy-2-pyridyl]piperidine-4-carboxamide] | 324 | 0.5 | 631 |  |  | 
12 | COc1cc(-c2c[nH]c(C3COc4ccc(Oc5ccnc6c5CCC(=O)N6)cc4C3)n2)ccn1 (stereo not drawn) [Compound 104] |  | 1.9 |  |  |  | 6.50
13 | CCn1nc(C)cc1-c1c[nH]c(C2COc3ccc(Oc4ccnc5c4CCC(=O)N5)cc3C2)n1 (stereo not drawn) [Compound 124, 5-[3-[4-(2-ethyl-5-methyl-pyrazol-3-yl)-1H-imidazol-2-yl]chroman-6-yl]oxy-3,4-dihydro-1H-1,8-naphthyridin-2-one] | 347 | 2.7 | 1070 |  |  | 
14 | CCc1cc(-c2c[nH]c(C3COc4ccc(Oc5ccnc6c5CCC(=O)N6)cc4C3)n2)n(C2CC2)n1 (stereo not drawn) [Compound 113, 5-[3-[4-(2-cyclopropyl-5-ethyl-pyrazol-3-yl)-1H-imidazol-2-yl]chroman-6-yl]oxy-3,4-dihydro-1H-1,8-naphthyridin-2-one] | > 1000 | 0.6 | 4680 |  |  | 
15 | O=C1CCc2c(Oc3ccc4c(c3)CN(C(=O)Nc3cccc(C(F)(F)F)c3)CC4)ccnc2N1 [Compound 50] |  |  | 269 | 46.8 | 1.2 | 
16 | O=C(Nc1cc(Oc2ccc3c(c2)CC(c2nc(-c4ccc(F)cc4)c[nH]2)CO3)ccn1)C1CC1 (stereo not drawn) [Compound 155, N-[4-[3-[4-(4-fluorophenyl)-1H-imidazol-2-yl]chroman-6-yl]oxy-2-pyridyl]cyclopropanecarboxamide] | 60.3 | 0.1 | 117 |  |  | 
17 | O=C(Nc1cc(Oc2ccc3c(c2)CC(c2nc(-c4ccccc4)c[nH]2)CO3)ccn1)C1CC1(F)F (stereo not drawn) [Compound 137, 2,2-difluoro-N-[4-[3-(4-phenyl-1H-imidazol-2-yl)chroman-6-yl]oxy-2-pyridyl]cyclopropanecarboxamide] | 35.5 | 0.1 | 191 |  |  | 
18 | Cc1ccc(-c2c[nH]c(C3COc4ccc(Oc5ccnc6c5CCC(=O)N6)cc4C3)n2)s1 (stereo not drawn) [Compound 110] | 89.1 | 0.2 | 107 |  |  | 
19 | O=C1CCc2c(Oc3ccc4c(c3)CN(c3nc(-c5ccccc5)n[nH]3)CC4)ccnc2N1 [Compound 44, 5-[[2-(3-phenyl-1H-1,2,4-triazol-5-yl)-3,4-dihydro-1H-isoquinolin-7-yl]oxy]-3,4-dihydro-1H-1,8-naphthyridin-2-one hydrochloride] |  |  | 1200 | 537 | 0.3 | 
20 | CC(=O)Nc1cc(Oc2ccc3c(c2)CC(c2nc(-c4ccccc4)c[nH]2)CO3)ccn1 (stereo not drawn) [Compound 156, N-[4-[3-(4-phenyl-1H-imidazol-2-yl)chroman-6-yl]oxy-2-pyridyl]acetamide] | 42.7 | 0.5 | 178 |  |  | 
21 | Cc1cc(-c2c[nH]c(C3COc4ccc(Oc5ccnc6c5CCC(=O)N6)cc4C3)n2)n(C)n1 (stereo not drawn) [Compound 106, 5-[3-[4-(2,5-dimethylpyrazol-3-yl)-1H-imidazol-2-yl]chroman-6-yl]oxy-3,4-dihydro-1H-1,8-naphthyridin-2-one] | 275 | 2.4 | 933 |  |  | 
22 | O=C(Nc1cc(Oc2ccc3c(c2)CC(c2nc(-c4ccccc4)c[nH]2)CO3)ccn1)C1CC1 (stereo not drawn) [Compound 45, N-[4-[3-(4-phenyl-1H-imidazol-2-yl)chroman-6-yl]oxy-2-pyridyl]cyclopropanecarboxamide] |  |  | 162 | 27.5 | 0.2 | 
23 | Cn1nc(C2CC2)cc1-c1c[nH]c(C2COc3ccc(Oc4ccnc5c4CCC(=O)N5)cc3C2)n1 (stereo not drawn) [Compound 125, 5-[3-[4-(5-cyclopropyl-2-methyl-pyrazol-3-yl)-1H-imidazol-2-yl]chroman-6-yl]oxy-3,4-dihydro-1H-1,8-naphthyridin-2-one] | 355 |  | 4470 |  |  | 
